Experimental findings from patent US20260297080A1, “BICYCLIC COMPOUNDS AS CDK INHIBITORS” (BeOne Medicines I GmbH, priority 2022, published 2026) are described below.

The target of one experiment is CDK1/Cyclin B1 (Homo sapiens, UniProt P06493). In words: CDK1/Cyclin B1 Biochemical Assay (TR-FRET), 0.015 mM ATP. Conditions: 0.15 μM Rb (Ser780)-biotin substrate, pH7.0, 60 min preincubation, 120 min reaction, room temperature. A digest of the protocol: (§1)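 TR-FRET assay with 0.15 μM Rb (Ser780)-biotin substrate and 0-10 μM compound in 50 mM HEPES pH7.0, 50 mM MgCl2, 1 mM DTT. ATP was 0.060 mM for CDK2/Cyclin E1 and 0.015 mM for CDK1/Cyclin B1. Kinase was preincubated with compound 60 min, reacted 120 min at room temperature, and IC50 was fitted (four-parameter) from the 665/620 nm ratio.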
(In TR-FRET formats the signal depends on donor and acceptor labels being close together.)

In another experiment the target is CDK2/Cyclin E1 (Homo sapiens, UniProt P24941). In words: CDK2/Cyclin E1 Biochemical Assay (TR-FRET), 0.060 mM ATP. Conditions: 0.15 μM Rb (Ser780)-biotin substrate, pH7.0, 60 min preincubation, 120 min reaction, room temperature. A digest of the protocol:
as §1

The structures appear in SMILES notation.

Sequence of CDK1/Cyclin B1 (P06493 whole entry): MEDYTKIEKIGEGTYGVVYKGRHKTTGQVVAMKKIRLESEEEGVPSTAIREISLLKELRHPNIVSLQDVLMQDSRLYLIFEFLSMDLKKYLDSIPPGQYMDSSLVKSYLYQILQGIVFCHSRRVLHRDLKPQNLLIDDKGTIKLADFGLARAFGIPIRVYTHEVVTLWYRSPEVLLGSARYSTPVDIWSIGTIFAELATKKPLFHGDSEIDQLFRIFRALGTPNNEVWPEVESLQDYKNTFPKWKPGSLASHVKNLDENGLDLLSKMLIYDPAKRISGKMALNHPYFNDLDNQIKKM
Sequence of CDK1/Cyclin B1 (P14635 whole entry partner): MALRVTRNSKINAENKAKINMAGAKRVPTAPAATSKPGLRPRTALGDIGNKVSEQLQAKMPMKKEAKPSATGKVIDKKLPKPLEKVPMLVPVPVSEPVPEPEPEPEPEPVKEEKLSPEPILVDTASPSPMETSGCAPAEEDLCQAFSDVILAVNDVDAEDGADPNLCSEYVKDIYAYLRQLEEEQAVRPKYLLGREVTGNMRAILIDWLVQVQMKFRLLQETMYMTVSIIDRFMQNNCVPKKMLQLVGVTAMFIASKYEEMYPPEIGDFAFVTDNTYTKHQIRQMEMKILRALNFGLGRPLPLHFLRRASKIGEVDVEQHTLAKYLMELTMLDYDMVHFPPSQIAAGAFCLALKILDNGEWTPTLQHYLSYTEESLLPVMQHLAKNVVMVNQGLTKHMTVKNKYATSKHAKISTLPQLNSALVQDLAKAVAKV

As a reminder, the IC50 is the point on the concentration scale where inhibition reaches its midpoint. On to `CC(C)NC(=O)O[C@H]1CC[C@@H](c2cc(Nc3cc(CO)c4c(c3F)CNS4(=O)=O)n[nH]2)C1` (relative stereo) [Example 365, cis-3-(3-((4-fluoro-7-(hydroxymethyl)-1,1-dioxido-2,3-dihydrobenzo[d]isothiazol-5-yl)amino)-1H-pyrazol-5-yl)cyclopentyl isopropylcarbamat], for which the IC50 against CDK1/Cyclin B1 and on CDK2/Cyclin E1 was greater than 10000 nM each time.

In the case of `CC(C)NC(=O)OC1CC(c2cc(Nc3ccc4c(c3F)CNS4(=O)=O)n[nH]2)C1` (centres unmarked) [Example 137, 3-(3-((4-fluoro-1,1-dioxido-2,3-dihydrobenzo[d]isothiazol-5-yl)amino)-1H-pyrazol-5-yl)cyclobutyl isopropylcarbamate], the figures for the IC50 on CDK1/Cyclin B1 and on CDK2/Cyclin E1 were 375 nM and 35 nM, respectively.

For `CC(NC(=O)O[C@H]1CC[C@@H](c2cc(Nc3cc4c(cc3F)S(=O)(=O)NC4)n[nH]2)C1)C1CC1` (relative stereo) [Example 413, cis-3-(3-((6-fluoro-1,1-dioxido-2,3-dihydrobenzo[d]isothiazol-5-yl)amino)-1H-pyrazol-5-yl)cyclopentyl(1-cyclopropylethyl)carbamate], the IC50 against CDK1/Cyclin B1 is 412 nM; against CDK2/Cyclin E1, 3.5 nM.

As for `C[C@H]1[C@H](O)CN1C(=O)O[C@H]1CC[C@@H](c2cc(Nc3ccc4c(c3F)CNS4(=O)=O)n[nH]2)C1` (relative stereo) [Example 145, cis-3-(3-((4-fluoro-1,1-dioxido-2,3-dihydrobenzo[d]isothiazol-5-yl)amino)-1H-pyrazol-5-yl)cyclopentyl(2S,3R)-3-hydroxy-2-methylazetidine-1-carboxylate], the IC50 is 267 nM against CDK1/Cyclin B1 and 14 nM against CDK2/Cyclin E1.

For `O=C(NC1(CO)CCC1)O[C@H]1CC[C@@H](c2cc(Nc3ccc4c(c3F)CS(=O)(=O)N4)n[nH]2)C1` (relative stereo) [Example 418, cis-3-(3-((4-fluoro-2,2-dioxido-1,3-dihydrobenzo[c]isothiazol-5-yl)amino)-1H-pyrazol-5-yl)cyclopentyl(1-(hydroxymethyl)cyclobutyl)carbamate], the IC50 against CDK1/Cyclin B1 stood at 32 nM; at CDK2/Cyclin E1, 2 nM.

Regarding `COc1c(Nc2cc([C@@H]3CC[C@H](OC(=O)NC(C)C)C3)[nH]n2)ccc2c1CNS2(=O)=O` (relative stereo) [Example 10, cis-3-(3-((4-methoxy-1,1-dioxido-2,3-dihydrobenzo[d]isothiazol-5-yl)amino)-1H-pyrazol-5-yl)cyclopentyl isopropylcarbamate], the results for the IC50 at CDK1/Cyclin B1 and on CDK2/Cyclin E1 were 3020 nM and 102 nM, respectively.

`CC(C)NC(=O)O[C@H]1CC[C@@H](c2cc(Nc3ccc4c(c3)C(C)S(=O)(=O)N4C)n[nH]2)C1` (relative stereo) [Example 207, cis-3-(3-((1,3-dimethyl-2,2-dioxido-1,3-dihydrobenzo[c]isothiazol-5-yl)amino)-1H-pyrazol-5-yl)cyclopentyl isopropylcarbamate]: the IC50 turned out to be 35 nM against CDK1/Cyclin B1 and 6.6 nM against CDK2/Cyclin E1.

Turning to `CC(C)NC(=O)O[C@H]1CC[C@@H](c2cc(Nc3ccc4c(c3F)CN(C3CN(C(c5ccccc5)c5ccccc5)C3)S4(=O)=O)n[nH]2)C1` (relative stereo) [Example 94, cis-3-(3-((2-(1-benzhydrylazetidin-3-yl)-4-fluoro-1,1-dioxido-2,3-dihydrobenzo[d]isothiazol-5-yl)amino)-1H-pyrazol-5-yl)cyclopentyl isopropylcarbamate], the IC50 at CDK1/Cyclin B1 is greater than 10000 nM; at CDK2/Cyclin E1, 332 nM.

Regarding `CCCNC(=O)O[C@H]1CC[C@@H](c2cc(Nc3cc4c(cc3F)S(=O)(=O)NC4)n[nH]2)C1` (single isomer, unassigned) [Example 42a, cis-3-(3-((6-fluoro-1,1-dioxido-2,3-dihydrobenzo[d]isothiazol-5-yl)amino)-1H-pyrazol-5-yl)cyclopentyl propylcarbamate], the IC50 on CDK1/Cyclin B1 is 891 nM; against CDK2/Cyclin E1, 14 nM.

Turning to `CC(NC(=O)O[C@H]1CC[C@@H](c2cc(Nc3ccc4c(c3)CS(=O)(=O)N4)n[nH]2)C1)C1COC1` (relative stereo) [Example 343, cis-3-(3-((2,2-dioxido-1,3-dihydrobenzo[c]isothiazol-5-yl)amino)-1H-pyrazol-5-yl)cyclopentyl(1-(oxetan-3-yl)ethyl)carbamate], the results for the IC50 against CDK1/Cyclin B1 and against CDK2/Cyclin E1 were 43 nM and 3.2 nM, respectively.

`CC1(NC(=O)O[C@H]2CC[C@@H](c3cc(Nc4ccc5c(c4F)CS(=O)(=O)N5C4COC4)n[nH]3)C2)CC1` (relative stereo) [Example 262, cis-3-(3-((4-fluoro-1-(oxetan-3-yl)-2,2-dioxido-1,3-dihydrobenzo[c]isothiazol-5-yl)amino)-1H-pyrazol-5-yl)cyclopentyl(1-methylcyclopropyl)carbamate]: the IC50 is 33 nM against CDK1/Cyclin B1 and 1.3 nM at CDK2/Cyclin E1.

As for `[2H]C([2H])([2H])N1c2c(F)cc(Nc3cc([C@@H]4CC[C@H](OC(=O)NC5(C)CC5)C4)[nH]n3)cc2CS1(=O)=O` (single isomer, unassigned) [Example 291b, cis-3-(3-((7-fluoro-1-(methyl-d3)-2,2-dioxido-1,3-dihydrobenzo[c]isothiazol-5-yl)amino)-1H-pyrazol-5-yl)cyclopentyl(1-methylcyclopropyl)carbamate], the IC50 against CDK1/Cyclin B1 came out at 48 nM; on CDK2/Cyclin E1, 1.3 nM.

Regarding `[2H]C([2H])([2H])N1c2ccc(Nc3cc([C@@H]4CC[C@H](OC(=O)NC(C)C)C4)[nH]n3)cc2CS1(=O)=O` (relative stereo) [Example 206, cis-3-(3-((1-(methyl-d3)-2,2-dioxido-1,3-dihydrobenzo[c]isothiazol-5-yl)amino)-1H-pyrazol-5-yl)cyclopentyl isopropylcarbamate], the IC50 on CDK1/Cyclin B1 is 63 nM; at CDK2/Cyclin E1, 6.4 nM.

Consider `Cc1cc2c(cc1Nc1cc([C@@H]3CC[C@H](OC(=O)NC(C)C)C3)[nH]n1)S(=O)(=O)NC2` (relative stereo) [Example 185, cis-3-(3-((5-methyl-1,1-dioxido-2,3-dihydrobenzo[d]isothiazol-6-yl)amino)-1H-pyrazol-5-yl)cyclopentyl isopropylcarbamate], for which the figures for the IC50 against CDK1/Cyclin B1 and at CDK2/Cyclin E1 were 1420 nM and 239 nM, respectively.

Turning to `CC(C)NC(=O)O[C@H]1CC[C@@H](c2cc(Nc3ccc4c(c3)S(=O)(=O)NC4(C)C)n[nH]2)C1` (relative stereo) [Example 4, cis-3-(5-((3,3-dimethyl-1,1-dioxido-2,3-dihydrobenzo[d]isothiazol-6-yl)amino)-1H-pyrazol-3-yl)cyclopentyl isopropylcarbamate], the IC50 was 184 nM against CDK1/Cyclin B1 and 8.6 nM on CDK2/Cyclin E1.

As for `CC1(NC(=O)O[C@H]2CC[C@@H](c3cc(Nc4ccc5c(c4Cl)CNS5(=O)=O)n[nH]3)C2)CC1` (single isomer, unassigned) [Example 40a, cis-3-(3-((4-chloro-1,1-dioxido-2,3-dihydrobenzo[d]isothiazol-5-yl)amino)-1H-pyrazol-5-yl)cyclopentyl(1-methylcyclopropyl)carbamate], the 50% inhibitory concentration (IC50) against CDK1/Cyclin B1 stood at 370 nM; at CDK2/Cyclin E1, 5.4 nM.

Turning to `CCCNC(=O)O[C@H]1CC[C@@H](c2cc(Nc3ccc4c(c3F)CS(=O)(=O)N4C3CC3)n[nH]2)C1` (relative stereo) [Example 276, cis-3-(3-((1-cyclopropyl-4-fluoro-2,2-dioxido-1,3-dihydrobenzo[c]isothiazol-5-yl)amino)-1H-pyrazol-5-yl)cyclopentyl propylcarbamate], the concentration for half-maximal inhibition (IC50) was found to be 111 nM against CDK1/Cyclin B1 and 5 nM against CDK2/Cyclin E1.

`C[C@H]1[C@H](O)CN1C(=O)O[C@H]1CC[C@@H](c2cc(Nc3ccc4c(c3F)CN(C)S4(=O)=O)n[nH]2)C1` (relative stereo) [Example 170, cis-3-(3-((4-fluoro-2-methyl-1,1-dioxido-2,3-dihydrobenzo[d]isothiazol-5-yl)amino)-1H-pyrazol-5-yl)cyclopentyl(2S,3R)-3-hydroxy-2-methylazetidine-1-carboxylate]: the concentration for half-maximal inhibition (IC50) against CDK1/Cyclin B1 came out at 407 nM; against CDK2/Cyclin E1, 23 nM.

As to `CCCNC(=O)O[C@H]1CC[C@@H](c2cc(Nc3ccc4c(c3F)CNS4(=O)=O)n[nH]2)C1` (single isomer, unassigned) [Example 138b], the IC50 was determined as 60 nM on CDK1/Cyclin B1 and 1.5 nM on CDK2/Cyclin E1.

As to `[2H]C([2H])([2H])N1c2ccc(Nc3cc([C@@H]4CC[C@H](OC(=O)NCCC)C4)[nH]n3)c(F)c2CS1(=O)=O` (single isomer, unassigned) [Example 268a, cis-3-(3-((4-fluoro-1-(methyl-d3)-2,2-dioxido-1,3-dihydrobenzo[c]isothiazol-5-yl)amino)-1H-pyrazol-5-yl)cyclopentyl propylcarbamate], the IC50 at CDK1/Cyclin B1 was 285 nM; at CDK2/Cyclin E1 it was 14 nM.

Consider `COCC1(NC(=O)O[C@H]2CC[C@@H](c3cc(Nc4ccc5c(c4F)CN(C)S5(=O)=O)n[nH]3)C2)CC1` (relative stereo) [Example 344, cis-3-(3-((4-fluoro-2-methyl-1,1-dioxido-2,3-dihydrobenzo[d]isothiazol-5-yl)amino)-1H-pyrazol-5-yl)cyclopentyl(1-(methoxymethyl)cyclopropyl)carbamate], for which the IC50 stood at 626 nM at CDK1/Cyclin B1 and 6.4 nM against CDK2/Cyclin E1.

On to `CC(C)NC(=O)O[C@H]1CC[C@@H](c2cc(Nc3ccc4c(c3F)CN(C3CCN(C)C3)S4(=O)=O)n[nH]2)C1` (relative stereo) [Example 70, cis-3-(3-((4-fluoro-2-(1-methylpyrrolidin-3-yl)-1,1-dioxido-2,3-dihydrobenzo[d]isothiazol-5-yl)amino-1H-pyrazol-5-yl)cyclopentyl isopropylcarbamate], for which the figures for the IC50 against CDK1/Cyclin B1 and at CDK2/Cyclin E1 were 503 nM and 11 nM, respectively.
